Measured values taken from US9790378B2, “Vapor source using solutions of precursors in terpenes” (President and Fellows of Harvard College, priority 2010, dated 2017).

Procedure: [drawing 8] was dissolved in alloocimene.
Examples 1 and 2 were repeated except that dodecane was used as a solvent in place of alloocimene or farnesenes.
[drawing 9] is dissolved in mixed isomers of farnesene.
[drawing 10] is dissolved in mixed isomers of farnesenes.
[drawing 11] is dissolved in mixed isomers of farnesenes.
[drawing 12] is dissolved in alloocimene.
[drawing 13] is dissolved in mixed isomers of farnesene.

Solubility (in words), high:
bis(N,N′-diisopropylacetamidinato)cobalt(II)
bis(N,N′-diisopropylpentamidinato)manganese(II)
copper(I) (N,N′-di-sec-butylacetamidinate)
tris(N,N′-diisopropylacetamidinato)yttrium(III)
tris(N,N′-diisopropylformamidinato)lanthanum(III)
